Experimental data from patent US20240360146A1, “BRUTON'S TYROSINE KINASE AND MUTANT DEGRADER, COMPOSITION AND APPLICATION THEREOF” (HANGZHOU HEALZEN THERAPEUTICS CO., LTD., priority 2021, published 2024).

Columns and labels:
BTK = target: T1, BTK (Homo sapiens, UniProt Q06187); assay: BTK degradation activity test in Mino cells; format: cell-based; conditions: 16 h incubation, Western blot or Elisa
T1 construct: endogenous in cells; host or cells: Mino cells
Outline: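 Mino cells treated with a concentration series of compound for 16 h, then lysed; total protein by BCA. BTK quantified by Western blot or ELISA, degradation rate calculated against blank control, and DC50 fitted from the degradation curve.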

[1] = Stability of compounds in human liver microsome; format: in vitro ADME; conditions: human liver microsomes, NADPH, 37° C., sampling 0-120 min; read-out: Human liver microsome T1/2
Outline: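 Compound incubated at 37° C with human liver microsomes (1 mg in 1 mL PBS) plus NADPH. Samples taken at 0, 15, 30, 60 and 120 min, quenched into internal standard solution and analysed by LC/MS; metabolism calculated from peak area.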

[2] = Beagle dog absorption test (PK in dogs); format: in vivo; conditions: plasma, po, intragastric, 10 mg/kg
Experimental: Beagle dogs were used as experimental animals, and drugs were administered intragastrically at 10 mg/kg. The blood collection time points for intragastric administration were 0, 0.25, 0.5, 1, 2, 4, 6, 8, 10, 12, and 24 h. 1.0 mL of blood was collected from the jugular vein, placed in an EDTAK2 centrifuge tube, and placed on an ice bath, centrifuged at 5000 rpm and 4° C. for 10 min to obtain the supernatant, i.e., plasma. 0.1 ml of the plasma was taken for analysis by LC-MS/MS.

OCI-LY10 cells = assay: Inhibitory activity on OCI-LY10 cell proliferation (MTS); format: cell-based; conditions: Homo sapiens, 72 h
Outline: (§1)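 Cells seeded at 10000/well, treated with compounds from 1000 nM (4-fold, 8 points) for 72 h (OCI-LY10) or 168 h (Mino) at 37° C. MTS added for 2 h, stopped with SDS, absorbance read at 490 and 650 nm; IC50 from dose-response fit.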

[3] = Mouse absorption test (pharmacokinetic properties in mice); format: in vivo; conditions: intragastric, 30 mg/kg
Experimental: […] The blood collection time points for intragastric administration were 0.25, 0.5, 1, 2, 4, 6, 8, and 24 h. 0.5 mL of blood was taken with a capillary tube from the orbit, and placed in an EP tube containing EDTA anticoagulant. The EP tube was shaken gently for mixing uniformly, and centrifuged at 3500 rpm and 4° C. for 10 min. The supernatant, i.e., plasma, was taken. Analysis was performed using LC-MS/MS.

Mino cells = assay: Inhibitory activity on Mino cell proliferation (MTS); format: cell-based; conditions: Homo sapiens, 168 h incubation
Outline: as §1

BTK-C481S = target: T2, BTK-C481S (Homo sapiens, UniProt Q06187, C481S); assay: BTK-C481S degradation activity test in HEK293 OE BTK-C481S cells; format: cell-based; conditions: 24 h incubation, Western blot or Elisa
T2 construct: expressed in transfected cells; host or cells: HEK293 OE BTK-C481S (overexpressing) cell line
T2 sequence (Q06187 whole entry C481S): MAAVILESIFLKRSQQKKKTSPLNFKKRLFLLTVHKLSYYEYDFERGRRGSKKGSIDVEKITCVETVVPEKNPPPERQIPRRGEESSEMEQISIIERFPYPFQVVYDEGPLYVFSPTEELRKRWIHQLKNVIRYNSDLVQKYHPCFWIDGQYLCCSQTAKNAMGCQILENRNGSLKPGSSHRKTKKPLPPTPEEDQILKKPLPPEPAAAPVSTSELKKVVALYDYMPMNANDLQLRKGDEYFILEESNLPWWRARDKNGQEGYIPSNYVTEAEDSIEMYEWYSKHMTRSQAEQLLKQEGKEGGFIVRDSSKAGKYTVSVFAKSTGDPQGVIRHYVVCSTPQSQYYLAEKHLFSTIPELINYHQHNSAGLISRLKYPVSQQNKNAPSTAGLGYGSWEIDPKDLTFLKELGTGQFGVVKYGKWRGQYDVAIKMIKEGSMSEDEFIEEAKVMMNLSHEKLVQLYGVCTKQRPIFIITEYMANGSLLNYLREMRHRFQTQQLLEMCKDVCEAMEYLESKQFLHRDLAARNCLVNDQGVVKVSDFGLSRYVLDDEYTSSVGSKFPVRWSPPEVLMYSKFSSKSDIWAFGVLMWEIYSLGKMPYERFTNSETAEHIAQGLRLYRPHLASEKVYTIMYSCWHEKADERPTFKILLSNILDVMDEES
Experimental: HEK293 OE BTK-C481S cell line cells were seeded at 500,000 to 1,000,000 cells/well in a 6-well plate. The compounds were diluted to different concentrations and added to the plate, and after 24 h of incubation, the cells were harvested. After lysing the cells, the total protein concentration in each well was determined using the BCA method. The amount of BTK-C481S was determined using Western blot or Elisa method. The amount of undegraded BTKC481S protein at each drug concentration was compared with the amount of BTKC481S protein in the blank control group to calculate the degradation rate. The degradation curve was drawn based on the degradation rate at each concentration, and the half degradation concentration (DC50) was calculated by fitting.

B cell activation = assay: Test of inhibition of B cell activation in PBMC (Anti-Human IgM stimulation, flow cytometry); format: cell-based; conditions: Anti-Human IgM 50 μg/mL, 18 h
Experimental: The PBMC cell cryopreservation liquid was resuspended in 1640 complete culture medium to an appropriate concentration, and inoculated into a 96-well round-bottom plate at 15×10^4 cells/90 μL/well, and the culture plate was placed in a CO2 incubator for incubation.
The compounds to be tested were formulated into 10 mM stock solutions which were then fold-serially diluted with DMSO, and then diluted with 1640 complete culture liquid to make the concentration 100 times of the final concentration. The compound diluent was added into the cell solution in each well at 1 μL/well and shaken gently. 2 duplicate wells were set up for each concentration. The dosed cell plate was placed in a 37° C. incubator with 5% carbon dioxide and incubated for 1 h.
3. The dosed cell culture plate was taken and 10 μL of Anti-Human IgM-UNLB was added into the well corresponding to the compound to be tested; in 2 groups of cell blank wells, only 10 μL of Anti-Human IgM-UNLB was added; and in 3 groups of cell blank wells, no reagents and antibodies were added. The final concentration of Anti-Human IgM-UNLB was 50 μg/mL.
4. The loaded cell culture plate was placed in a 37° C. incubator with 5% carbon dioxide and incubated for 18 h. Total system: 90 μL PBMC+1 μL compound+10 μL Anti-Human IgM-UNLB
5. Samples were collected and stained, and the cells were analyzed using flow cytometry to obtain data. (When analyzed using flow cytometry, lymphocytes were gated).

[4] = tested on: OCL-LY10 transplanted tumors; assay: Chronic efficacy test, OCL-LY10 subcutaneous transplanted tumor model; format: in vivo; conditions: NOD/SCID mice, intragastric 10 mg/kg, 3 weeks
Experimental: NOD/SCID mice were subcutaneously inoculated with OCL-LY10 cells to establish a tumor model. When the tumors grew to about 100 mm^3, the mice were administered with drugs in groups. The mode of administration was as follows: the test compound was administered intragastrically at 10 mg/kg; The changes in body weight and tumor size of the mice were measured twice per week. After 3 weeks, the mice were sacrificed by cervical dislocation, and the efficacy of the compounds on transplanted tumors in OCL-LY10 mice was examined.

T1 sequence (Q06187 whole entry): as the sequence (Q06187 whole entry C481S) above, with S481C counted along it

CN1CCN([C@@H]2CCCN(c3nnc(C(N)=O)c(Nc4ccc(N5CCN(C[C@H]6CCN(c7ccc8c(c7)C(=O)N(C7CCC(=O)NC7=O)C8=O)C6)CC5)c(F)c4)n3)C2)C1=O (stereo partly drawn) [Compound 132, 5-((4-(4-(((3R)-1-(2-(2,6-dioxopiperidin-3-yl)-1,3-dioxoisoindolin-5-yl)pyrrolidin-3-yl)methyl)piperazin-1-yl)-3-fluorophenyl)amino)-3-((R)-3-(3-methyl-2-oxoimidazolin-1-yl)piperidin-1-yl)-1,2,4-triazin-6-carboxamide]
DC50 (BTK): < 1 nM | half-life at 0.97 µg/mL [1]: > 30 min | AUC [2]: 1690 ng·h/mL | IC50 (OCI-LY10 cells): < 1 nM | DNAUC ([3]; DNAUC = AUC/Dose): 2430 ng/ml*h/mpk | Cmax ([3]; mouse, plasma, po): 7800 ng/mL | IC50 (Mino cells): 2.55 nM

Cc1cc(N2CCC(CN3CCN(c4ccc(Nc5nc(N6CCC[C@@H](N7CCN(C)C7=O)C6)nnc5C(N)=O)cc4F)CC3)CC2)ccc1N1CCC(=O)NC1=O [Compound 257, (R)-5-((4-(4-((1-(4-(2,4-dioxotetrahydropyrimidin-1(2H)-yl)-3-methylphenyl)piperidin-4-yl)methyl)piperazin-1-yl)-3-fluorophenyl)amino)-3-(3-(3-methyl-2-oxoimidazolidin-1-yl)piperidin-1-yl)-1,2,4-triazin-6-carboxamide]
DC50 (BTK): < 1 nM | half-life at 0.97 µg/mL [1]: > 30 min | AUC [2]: 6590 ng·h/mL | DC50 (BTK-C481S): < 10 nM | IC50 (OCI-LY10 cells): 0.12 nM | IC50 (Mino cells): < 0.26 nM | Inhibition ratio % (B cell activation; concentration 0.16 nM): 100% | Inhibition ratio % (B cell activation; concentration 0.80 nM): 100% | TGI (%) [4]: 98.74%

NC(=O)c1ncc(N2CCCCC2)nc1Nc1ccc(C2CCN(C[C@H]3CCN(c4ccc5c(c4)C(=O)N(C4CCC(=O)NC4=O)C5=O)C3)CC2)cc1 (some centres unmarked) [Compound c, reference compound]
AUC [2]: 246 ng·h/mL | Inhibition ratio % (B cell activation; concentration 0.16 nM): 10.2% | Inhibition ratio % (B cell activation; concentration 0.80 nM): 16.3% | TGI (%) [4]: 67.59%
